Experimental data taken from US8202908B1, “D-aspartic acid supplement” (priority 2008, dated 2012).

What was measured:
[1] = test system: adult male humans; experiment: Oral DL-aspartic acid given to adult male humans for 21 days, blood hormone levels; format: in vivo, human; conditions: adult males aged twenty to sixty; 10, 20 or 40 grams DL-aspartic acid per day orally in two doses for twenty-one days; versus baseline
Protocol: This example illustrates the effects of administering D-aspartic acid to adult male humans.
A group of nine adult males ranging in age from twenty to sixty is divided into three groups of three men each. The division is made so that each group contains a similar age distribution. Blood samples are taken and the levels of testosterone, growth hormone, and insulin-like growth factor 1 are measured.
The men in the first group orally ingest 10 grams of DL-aspartic acid (which includes 5 grams of D-aspartic acid) daily for twenty-one days. The amount is divided into two equal doses, one of which is taken in the morning and one of which is taken in the evening. The men in the second and third groups follow a similar procedure except the men in the second group orally ingest 20 grams of DL-aspartic acid (which includes 10 grams of D-aspartic acid) per day and the men in the third group orally ingest 40 grams of DL-aspartic acid (which includes 20 grams of D-aspartic acid) per day. Blood samples are then retaken.

[2] = test system: pituitary gland; conditions: both in-vitro and in-vivo; cited from earlier work
[3] = test system: pituitary; conditions: both in-vitro and in-vivo; cited from earlier work
[4] = test system: animals; conditions: cited from earlier work
[5] = test system: testes; conditions: both in-vitro and in-vivo; cited from earlier work
[6] = test system: finishing pigs; conditions: finishing pigs fed with N-methyl-D-aspartate; cited from earlier work

NC(CC(=O)O)C(=O)O (racemic) [DL-aspartic acid]
level of growth hormone in blood [1]: significant increases
level of insulin-like growth factor 1 in blood [1]: significant increases
level of testosterone in blood [1]: significant increases

N[C@H](CC(=O)O)C(=O)O [D-aspartic acid]
growth hormone production from the pituitary gland [2]: stimulate growth hormone production
release of luteinizing hormone from the pituitary [3]: stimulate the release
growth hormone levels in the animals [4]: increase
testosterone levels in the animals [4]: increase
release of testosterone from the testes [5]: stimulate the release

CN[C@H](CC(=O)O)C(=O)O [N-methyl-D-aspartate]
growth hormone production from the pituitary gland [2]: stimulate growth hormone production
growth hormone levels in the animals [4]: increase
testosterone levels in the animals [4]: increase
growth rate [6]: increase in growth rate
